Laboratory results taken from ChEMBL document CHEMBL3085743, “6-(1-Benzyl-1H-pyrrol-2-yl)-2,4-dioxo-5-hexenoic acids as dual inhibitors of recombinant HIV-1 integrase and ribonuclease H, synthesized by a parallel synthesis approach” (J Med Chem, 2013).
pIC50: −log10 of the molar value.

Experiments:
[1] = target: Human immunodeficiency virus type 1 integrase (Human immunodeficiency virus 1, UniProt Q7ZJM1)
Description: Inhibition of strand transfer activity of recombinant HIV1 integrase using 5'-end-labeled 21-mer double-stranded DNA as substrate after 60 mins by electrochemiluminescent plate-based assay

[2] = target: Human immunodeficiency virus type 1 reverse transcriptase (Human immunodeficiency virus 1, UniProt Q72547)
Description: Inhibition of RNase H activity of recombinant HIV1 reverse transcriptase using poly(dC)-[3H]poly(rG) as substrate

Human immunodeficiency virus type 1 integrase, sequence (Q7ZJM1 whole entry): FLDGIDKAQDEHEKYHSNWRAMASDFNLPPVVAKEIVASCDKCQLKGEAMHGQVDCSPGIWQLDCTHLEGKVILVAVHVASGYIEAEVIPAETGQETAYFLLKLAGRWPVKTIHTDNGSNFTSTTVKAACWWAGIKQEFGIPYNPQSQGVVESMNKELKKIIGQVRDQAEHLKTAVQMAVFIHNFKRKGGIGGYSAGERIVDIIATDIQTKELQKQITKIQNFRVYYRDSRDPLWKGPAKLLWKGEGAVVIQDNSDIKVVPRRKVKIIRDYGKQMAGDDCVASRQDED

Row | Compound | pIC50 [1] | pIC50 [2]
1 | CCOC(=O)C(=O)CC(=O)/C=C/c1cccn1Cc1cccc(C)c1 | 5.10 | 5.02
2 | CCOC(=O)C(=O)CC(=O)/C=C/c1cccn1Cc1ccc(C#N)cc1 | < 3.95 | 5.10
3 | COc1ccc(Cn2cccc2/C=C/C(=O)CC(=O)C(=O)O)cc1 | – | 5.52
4 | N#Cc1ccc(Cn2cccc2/C=C/C(=O)CC(=O)C(=O)O)cc1 | 5.77 | 5.22
5 | CCOc1ccccc1Cn1cccc1/C=C/C(=O)CC(=O)C(=O)O | 6.51 | 4.19
6 | CCOC(=O)C(=O)CC(=O)/C=C/c1cccn1Cc1cccc(F)c1F | 6.28 | 5.10
7 | CCOC(=O)C(=O)CC(=O)/C=C/c1cccn1Cc1ccccc1OC | 4.64 | < 4.00
8 | CCOC(=O)C(=O)CC(=O)/C=C/c1cccn1Cc1cc(F)cc(F)c1 | 6.31 | 5.30
9 | O=C(/C=C/c1cccn1Cc1cccc(F)c1)CC(=O)C(=O)O | 6.04 | 4.85
10 | O=C(/C=C/c1cccn1Cc1cccc(F)c1F)CC(=O)C(=O)O | 7.23 | 5.22
11 | CCOC(=O)C(=O)CC(=O)/C=C/c1cccn1Cc1ccccc1C#N | 5.05 | 4.49
12 | O=C(/C=C/c1cccn1Cc1ccccc1)CC(=O)C(=O)O | – | 4.82
13 | Cc1ccccc1Cn1cccc1/C=C/C(=O)CC(=O)C(=O)O | 6.77 | 4.59
14 | CCOC(=O)C(=O)CC(=O)/C=C/c1cccn1Cc1ccc(Cl)cc1Cl | < 3.95 | 5.05
15 | O=C(/C=C/c1cccn1Cc1cc(F)ccc1F)CC(=O)C(=O)O | 7.28 | 5.30
16 | O=C(/C=C/c1cccn1Cc1ccc(F)cc1F)CC(=O)C(=O)O | 7.38 | 5.00
17 | CCOC(=O)C(=O)CC(=O)/C=C/c1cccn1Cc1cccc(Cl)c1 | 5.22 | 4.72
18 | CCOC(=O)C(=O)CC(=O)/C=C/c1cccn1Cc1cc(C)cc(C)c1 | 4.72 | 5.22
19 | O=C(/C=C/c1cccn1Cc1c(F)cccc1F)CC(=O)C(=O)O | 6.82 | 4.30
20 | O=C(/C=C/c1cccn1Cc1ccc(F)c(F)c1)CC(=O)C(=O)O | 5.80 | 4.07
21 | O=C(/C=C/c1cccn1Cc1cc(F)cc(F)c1)CC(=O)C(=O)O | 5.92 | 4.85
22 | CCOC(=O)C(=O)CC(=O)/C=C/c1cccn1Cc1ccccc1C | 4.49 | 5.52
23 | O=C(/C=C/c1cccn1Cc1ccc(Cl)cc1)CC(=O)C(=O)O | 5.39 | 5.30
24 | CCOC(=O)C(=O)CC(=O)/C=C/c1cccn1Cc1cccc(F)c1 | 4.96 | 5.05

Row | Compound | pIC50 [1] | pIC50 [2]
25 | CCOC(=O)C(=O)CC(=O)/C=C/c1cccn1Cc1c(F)cccc1F | 5.40 | 4.72
26 | O=C(/C=C/c1cccn1Cc1cccc(Cl)c1)CC(=O)C(=O)O | 6.51 | 5.05
27 | CCOC(=O)C(=O)CC(=O)/C=C/c1cccn1Cc1cc(Cl)cc(Cl)c1 | 5.10 | –
28 | COc1ccccc1Cn1cccc1/C=C/C(=O)CC(=O)C(=O)O | 6.28 | 4.80
29 | Cc1cccc(Cn2cccc2/C=C/C(=O)CC(=O)C(=O)O)c1 | 5.89 | 5.34
30 | O=C(/C=C/c1cccn1Cc1ccccc1F)CC(=O)C(=O)O | 6.01 | 5.19
31 | CCOC(=O)C(=O)CC(=O)/C=C/c1cccn1Cc1ccc(F)cc1F | 6.00 | 4.72
32 | CCOC(=O)C(=O)CC(=O)/C=C/c1cccn1Cc1ccc(C)cc1 | – | 5.14
33 | CCOC(=O)C(=O)CC(=O)/C=C/c1cccn1Cc1cccc(C#N)c1 | 4.89 | 5.30
34 | CCOC(=O)C(=O)CC(=O)/C=C/c1cccn1Cc1c(Cl)cccc1Cl | 5.77 | 4.66
35 | CCOC(=O)C(=O)CC(=O)/C=C/c1cccn1Cc1ccc(Cl)cc1 | – | 5.10
36 | CCOC(=O)C(=O)CC(=O)/C=C/c1cccn1Cc1ccccc1F | 6.00 | 5.20
37 | Cc1ccc(Cn2cccc2/C=C/C(=O)CC(=O)C(=O)O)cc1 | – | 4.77
38 | O=C(/C=C/c1cccn1Cc1cc(Cl)cc(Cl)c1)CC(=O)C(=O)O | 6.01 | 4.52
39 | O=C(/C=C/c1cccn1Cc1c(Cl)cccc1Cl)CC(=O)C(=O)O | 6.77 | 4.55
40 | Cc1cc(C)cc(Cn2cccc2/C=C/C(=O)CC(=O)C(=O)O)c1 | 5.80 | 4.80
41 | N#Cc1ccccc1Cn1cccc1/C=C/C(=O)CC(=O)C(=O)O | 5.22 | 5.22
42 | O=C(/C=C/c1cccn1Cc1ccc(F)cc1)CC(=O)C(=O)O | 7.59 | 5.60
43 | CCOC(=O)C(=O)CC(=O)/C=C/c1cccn1Cc1ccc(OC)cc1 | – | 5.17
44 | N#Cc1cccc(Cn2cccc2/C=C/C(=O)CC(=O)C(=O)O)c1 | 6.12 | 5.30
45 | CCOC(=O)C(=O)CC(=O)/C=C/c1cccn1Cc1cc(F)ccc1F | 6.35 | 5.05
46 | CCOC(=O)C(=O)CC(=O)/C=C/c1cccn1Cc1ccccc1OCC | 4.92 | < 4.00
47 | O=C(/C=C/c1cccn1Cc1ccc(Cl)cc1Cl)CC(=O)C(=O)O | 5.31 | 5.15
